Measured values published in patent publication US8138191B2, “Inhibitor compounds and cancer treatment methods” (Critical Outcome Technologies Inc., priority 2007, dated 2012).

Tests used:
[1] = in vitro; type: in vitro ADME; conditions: mixed breeds, rat
[2] = test system: rat plasma; assay: in vitro; type: in vitro ADME; conditions: mixed breeds, 10 µM
[3] = target: CYP2C19 (Homo sapiens, UniProt P33261); assay: in vitro; conditions: both
[4] = target: T1, CYP2B6 (Homo sapiens, UniProt P20813); assay: in vitro; conditions: both
T1 sequence (P20813 1-491): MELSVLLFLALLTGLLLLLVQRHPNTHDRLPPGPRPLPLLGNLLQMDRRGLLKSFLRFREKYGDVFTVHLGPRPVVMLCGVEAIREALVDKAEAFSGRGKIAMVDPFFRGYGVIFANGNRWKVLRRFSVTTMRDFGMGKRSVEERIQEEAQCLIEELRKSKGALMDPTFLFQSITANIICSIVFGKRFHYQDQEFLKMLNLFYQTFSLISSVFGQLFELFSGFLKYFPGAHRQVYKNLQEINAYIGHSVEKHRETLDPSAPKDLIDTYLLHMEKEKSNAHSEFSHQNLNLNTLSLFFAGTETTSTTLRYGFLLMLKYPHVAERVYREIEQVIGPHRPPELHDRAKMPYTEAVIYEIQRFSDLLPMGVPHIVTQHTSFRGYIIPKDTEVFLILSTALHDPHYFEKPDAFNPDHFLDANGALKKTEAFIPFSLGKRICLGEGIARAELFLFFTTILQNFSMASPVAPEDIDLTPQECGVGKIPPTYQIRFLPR

[5] = test system: SHP77 cells; assay: AKT/AKT2 siRNA then COTI-2, cell viability by MTT assay, SHP77; type: cell-based, human; conditions: SHP 77
Description: Cell cultures were maintained under regular tissue culture conditions and passaged 1-2 times a week as recommended by ATCC. For siRNA experiments the manufacturer's conditions for growth and transfection were followed. All siRNA reagents for AKT and AKT2 transfections were obtained from Cell Signaling.
Cells were treated for 48 h with 0-100 ng of AKT or AKT2 siRNA before incubation with COTI-2 at various concentrations (0-500 nM). Following incubation for 48 h, cell viability was determined by MTT assay.

[6] = test system: HeLa cells; assay: Sensitivity to COTI-2 after PTEN siRNA knockdown (alamar Blue), HeLa; type: cell-based, human; conditions: 48 h post-transfection
Description: Briefly, HeLa and MCF-7 cells were transfected with 100 nM PTEN siRNA or control non-targeted siRNA at 48 or 144 h prior to exposure to various concentrations of COTI-2.
To assess the capacity of transient siRNA transfection to alter the ability of cells to proliferate in the presence or absence of COTI-2, HeLa or MCF-7 cells (both PTEN-positive) were plated in T25 flasks and transfected 24 h later with PTEN siRNA or non-targeting control siRNA (100 nM in both cases), using Oligofectamine Reagent (Invitrogen) according to the manufacturer's instructions and as previously described (J Pharmacol Exp Ther, 322:123-132). […] PTEN and 18S rRNA mRNA levels were determined by semi-quantitative reverse transcription PCR. […]
For determination of drug sensitivity, HeLa and MCF-7 cells (transfected with PTEN siRNA or control, non-targeted siRNA 48 or 144 hours prior) were re-plated in 96-well plates (VWR, Mississauga, ON, Canada) at 1700 (MCF-7) and 1200 (HeLa) cells per well in a volume of 100 μl of DMEM+10% FBS. […] Cells were then grown for 4 days, and viable cell numbers were assessed by the alamar Blue fluorescence assay using a Wallac Victor^2 multilabel counter (PerkinElmer Wallac, Gaithersburg, Md.). […]

CYP2C19, sequence (P33261 whole entry): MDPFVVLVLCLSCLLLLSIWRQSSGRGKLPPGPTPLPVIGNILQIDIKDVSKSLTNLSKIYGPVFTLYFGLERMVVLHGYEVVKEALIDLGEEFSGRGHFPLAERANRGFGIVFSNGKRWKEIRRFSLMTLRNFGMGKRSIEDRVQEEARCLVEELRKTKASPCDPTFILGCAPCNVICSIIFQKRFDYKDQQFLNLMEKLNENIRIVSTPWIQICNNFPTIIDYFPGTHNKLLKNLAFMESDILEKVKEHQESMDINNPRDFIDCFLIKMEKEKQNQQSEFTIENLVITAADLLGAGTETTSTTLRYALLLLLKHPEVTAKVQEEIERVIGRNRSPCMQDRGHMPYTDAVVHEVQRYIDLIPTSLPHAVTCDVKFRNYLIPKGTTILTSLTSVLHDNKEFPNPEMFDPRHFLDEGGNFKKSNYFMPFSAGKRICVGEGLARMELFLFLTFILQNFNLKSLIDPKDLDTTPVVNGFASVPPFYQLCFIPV

Compound: S=C(N/N=C1/CCCc2cccnc21)N1CCN(c2ccccn2)CC1 [COTI-2]
- recovery at 10 µM ([1]; % Recovery 1st): 16.4%
- recovery at 10 µM ([1]; % Recovery 2nd): 25.1%
- recovery at 10 µM ([1]; % Recovery Mean): 20.7%
- recovery at 10 µM ([1]; percent recovery): < 50%
- % Protein Bound 1st [2]: >99.9%
- % Protein Bound 2nd [2]: >99.9%
- % Protein Bound Mean [2]: >99.9%
- percent protein bound [2]: > 99%
- inhibition at 15 min, 10 µM ([3]; human liver microsomes, pH 7.4, probe omeprazole (10 µM)): 4%
- inhibition at 15 min, 10 µM ([3]; liver microsomes, pH 7.4, probe omeprazole): < 50%
- inhibition at 15 min, 10 µM ([4]; human liver microsomes, pH 7.4, probe bupropion (10 µM)): 5%
- inhibition at 15 min, 10 µM ([4]; liver microsomes, pH 7.4, probe bupropion): < 50%
- cell death with total AKT or AKT2 siRNA, presence vs absence of COTI-2 [5]: no significant difference in cell death
- resistance to COTI-2 after PTEN siRNA transfection [6]: significant increase in the resistance
